# Laboratory results published in patent US11753403B2, “EIF4E inhibitors and uses thereof” (PIC Therapeutics, Inc., priority 2020, dated 2023).
# Molecular target: Human eIF4E (aa 28-217) / biotin labeled 4G2 peptide (Homo sapiens (Human), UniProt P06730)
# Assay: Human eIF4E/4G2 binding assay (TR-FRET)
# Conditions: Human eIF4E/4G2 TR-FRET binding assay; head says IC50, legend says EC50
# Procedure: Example 5. Compound Testing in Human eIF4E/4G2 Binding Assay
# Human eIF4E (aa 28-217) with a C-terminal His-tag was expressed in E. coli in inclusion bodies. The protein was solubilized with 8 M urea and purified under denaturing conditions using nickel-charged HisTrap HP columns (GE Healthcare). The purified protein was then refolded by diluting in 20 mM Hepes pH 7.0, 0.5 M NaCl, 1 mM DTT, 1 mM EDTA, 0.5 M arginine plus 6 M urea, and then dialyzing overnight into the same buffer without the urea. The protein was further dialyzed into 20 mM Hepes, pH 6.5, 50 mM NaCl, 1 mM EDTA, 1 mM DTT, and concentrated using Hitrap SP sepharose FF columns (GE Healthcare). The concentrated protein was dialyzed into 20 mM Hepes, pH 7.0, 0.5M NaCl, 5 mM DTT and 10% glycerol, and stored at −80° C. until use.
# Test compounds (3.43 mM stock in DMSO) were diluted 2-fold in series in DMSO (10 concentration points). Compound solutions (1.2 μl/well) were added into black 384-well polypropylene microplates (Matrix, Thermal Scientific). Twenty-two microliters per well of Assay Buffer (50 mM NaPi, pH 6.5, 50 mM KCl, 1 mM DTT and 0.5 mg/ml gamma globulin) and eight microliters per well of 82.5 nM purified eIF4E in Assay Buffer were added. The samples were incubated at room temperature (20-23° C.) for 4 hours. Biotin labeled 4G2 peptide (Ac-Lys-Gln-Tyr-Asp-Arg-Glu-Phe-Leu-Leu-Asp-Phe-Gln-Phe-Met-Pro-Lys(Aha-Bio)-NH2, 1.75 μM stock in DMSO) was diluted to 0.14 μM in Assay Buffer (without DTT) and 5 μl/well was added. The samples were incubated at room temperature for 20 min. Five microliters per well of 6.4 nM Eu-streptavidin (Eu-SA, Perkin Elmer) and 80 nM Allophycocyanin (APC)-anti His antibody (Columbia Biosciences) in Assay Buffer (without DTT) were then added and the samples were incubated at room temperature for 20 min.
# Assay signals were monitored by reading excitation at 340 nm and emission fluorescence at 615 nm and 665 nm on an Envision reader (Perkin Elmer). Normalized TR-FRET (time-resolved fluorescence resonance energy transfer) assay signal (Rn) was calculated by the formula: Rn=[(A−Ba−C×D)/(D−Bd)]×(Dc−Bd) Where A is the fluorescence intensity of the sample at 665 nm, • D is the fluorescence intensity of the sample at 615 nm, • Ba and Bd are plate backgrounds at 665 nm and 615 nm, respectively, • Dc is the fluorescence intensity of 0.78 nM Eu-SA in the assay buffer at 615 nm The cross-talk factor (C) is determined by the following formula: C=(Ac−Ba)/(Dc−Bd) Where Ac is the fluorescence intensity of 0.78 nM Eu-SA in the assay buffer at 665 nm.
# IC50 values were calculated using xLFit program (IDBS). Table 2 below lists EC50 of some compounds, wherein A represents EC50≤1 uM; B represents 1 uM<EC50≤10 uM; and C represents EC50>10 uM.
# Chain of Human eIF4E (aa 28-217) / biotin labeled 4G2 peptide (P06730 28-217): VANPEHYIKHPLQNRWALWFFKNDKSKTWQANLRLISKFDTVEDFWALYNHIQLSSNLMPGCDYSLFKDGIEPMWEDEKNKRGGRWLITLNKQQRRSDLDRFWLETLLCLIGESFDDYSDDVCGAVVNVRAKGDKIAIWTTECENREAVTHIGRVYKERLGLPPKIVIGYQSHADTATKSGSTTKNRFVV
row,Structure (SMILES),IC50 [nM]
1,CC(C)Cc1sc(NCC(Cc2ccc(O)nc2)C(=O)O)nc1-c1ccc(Cl)c(Cl)c1 (centres unmarked) [I-162],1000 to 10000
2,CC(C)c1sc(NCC(Cc2c[nH]c3ccccc23)C(=O)O)nc1-c1ccc(Cl)c(Cl)c1 (centres unmarked) [I-9],1000 to 10000
3,COc1ccc(-c2nc(Nc3ncc(C(F)(F)F)cc3C(=O)O)sc2C(C)C)cc1Cl [I-326],≤ 1000
4,COc1cc(-c2cnc(Nc3nc(-c4ccc(Cl)c(Cl)c4)c(C(C)C)s3)c(C(=O)O)c2)ccn1 [I-268],≤ 1000
5,CC(C)Cc1sc(N(CCc2nnn[nH]2)Cc2ccccc2)nc1-c1ccc(Cl)c(Cl)c1 [I-100],≤ 1000
6,"C=C(C)c1sc(NCC(Cc2ccccc2)C(=O)O)nc1-c1ccc(Cl)c(Cl)c1 (centres unmarked) [I-185, 2-benzyl-3-(4-(3,4-dichlorophenyl)-5-(prop-1-en-2-yl)thiazol-2-ylamino)propanoic acid]",1000 to 10000
7,CC(C)Cc1sc(NCC(Cc2ccc(S(N)(=O)=O)cc2)C(=O)O)nc1-c1ccc(Cl)c(Cl)c1 (centres unmarked) [I-176],1000 to 10000
8,"CC(C)Cc1sc(NCC(NC(=O)OC(C)(C)C)C(=O)O)nc1-c1ccc(Cl)c(Cl)c1 (centres unmarked) [I-137, 2-(tert-butoxycarbonylamino)-3-(4-(3,4-dichlorophenyl)-5-isobutylthiazol-2-ylamino) propanoic acid]",1000 to 10000
9,CC(C)Cc1sc(N(CCC(=O)O)Cc2c[nH]c3ccccc23)nc1-c1ccc(Cl)c(Cl)c1 [I-54],1000 to 10000
10,"CC(C)Cc1sc(N(CCC(=O)O)CCC(=O)O)nc1-c1ccc(Cl)c(Cl)c1 [I-58, 3,3′-(4-(3,4-dichlorophenyl)-5-isobutylthiazol-2-ylazanediyl)dipropanoic acid]",> 10000
11,COc1ccc(-c2nc(Nc3ncc(-c4cccs4)cc3C(=O)O)sc2C(C)C)cc1Cl [I-324],≤ 1000
12,CC(C)Cc1sc(N(CCC(=O)O)Cc2ccccc2)nc1-c1cc(Cl)c(Cl)c(Cl)c1 [I-111],≤ 1000

# Next, values leading:
row,IC50 [nM],Structure (SMILES)
1,1000 to 10000,CC(C)Cc1sc(NCC(Cc2cccc(C(N)=O)c2)C(=O)O)nc1-c1ccc(Cl)c(Cl)c1 (centres unmarked) [I-167]
2,1000 to 10000,COCCN(CCC(=O)O)c1nc(-c2ccc(Cl)c(Cl)c2)c(CC(C)C)s1 [I-67]
3,1000 to 10000,"O=C(O)C(CNc1nc(-c2ccc(Cl)c(Cl)c2)c(CC(F)(F)F)s1)Cc1ccccc1 (centres unmarked) [I-184, 2-benzyl-3-(4-(3,4-dichlorophenyl)-5-(2,2,2-trifluoroethyl)thiazol-2-ylamino)propanoic acid]"
4,≤ 1000,CC(C)Cc1sc(-c2ccc(-c3cccnc3)c(C(=O)O)c2)nc1-c1ccc(Cl)c(Cl)c1 [I-226]
5,1000 to 10000,"CCOC(=O)c1sc(NCC(Cc2ccccc2)C(=O)O)nc1-c1ccc(Cl)c(Cl)c1 (centres unmarked) [I-182, 2-benzyl-3-(4-(3,4-dichlorophenyl)-5-(ethoxycarbonyl)thiazol-2-ylamino)propanoic acid]"
6,≤ 1000,CC(C)Cc1sc(Nc2cc(C(=O)O)cc(C(F)(F)F)c2)nc1-c1ccc(Cl)c(Cl)c1 [I-213]
7,1000 to 10000,O=C(O)C(CCc1ccccc1)CNc1nc(-c2ccc(Cl)c(Cl)c2)c(C2CC2)s1 (centres unmarked) [I-15]
8,1000 to 10000,COc1ccc(-c2nc(N(CCC(=O)O)Cc3ccccc3)sc2CC(C)C)cc1Cl [I-80]
9,≤ 1000,CC(C)CCc1sc(NCC(Cc2ccccc2)C(=O)O)nc1-c1ccc(Cl)c(Cl)c1 (centres unmarked) [I-180]
10,> 10000,COc1ccc(-c2nc(N(CCC(=O)O)Cc3ccccc3)sc2C(C)C)cc1 [I-76]
11,≤ 1000,"CC(C)Cc1sc(N(CCC(=O)O)Cc2ccccc2)nc1-c1ccc(-c2ccc(F)cc2)cc1 [I-101, 3-(benzyl(4-(4′-fluorobiphenyl-4-yl)-5-isobutylthiazol-2-yl)amino)propanoic acid]"
12,> 10000,CC(C)Cc1sc(N(CCC(=O)NCC(N)=O)Cc2ccccc2)nc1-c1ccc(Cl)c(Cl)c1 [I-193]
13,> 10000,"CC(C)Cc1sc(N(Cc2ccccc2)C(=O)CC(=O)O)nc1-c1ccc(Cl)c(Cl)c1 [I-143, 3-(benzyl(4-(3,4-dichlorophenyl)-5-isobutylthiazol-2-yl)amino)-3-oxopropanoic acid]"
14,> 10000,COc1cccc(-c2nc(NCC(Cc3cccc(O)c3)C(=O)O)sc2C(C)C)c1 (centres unmarked) [I-31]
